Several values for one entry are separate records, joined by “and”; a condition that tells them apart may be missing. Identical values can stand only once. Toxic doses and inconclusive results are not listed.
Tested on: P388 leukemia ip, CD2F1 mice, survival T/C
Experiment: NCI In Vivo Anticancer Drug Screen. Data for tumor model P388 Leukemia (intraperitoneal) in CD2F1 (CDF1) mice
Conditions: endpoint: median survival time, higher = longer survival
Summary of the method: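 Mice carrying the transplanted tumor received test compound or vehicle. Survival was recorded in each group, and the value is the treated-group measurement divided by that of the vehicle-treated control group.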

[1] = dose: 50.0 mg/kg/injection, schedule: Q01DX005 (ip), vehicle: saline
[2] = dose: 100.0 mg/kg/injection, schedule: Q01DX005 (ip), vehicle: saline
[3] = dose: 50.0 mg/kg/injection, schedule: Q01DX005 (ip), vehicle: saline with Tween-80
[4] = dose: 100.0 mg/kg/injection, schedule: Q01DX005 (ip), vehicle: saline with Tween-80
[5] = dose: 200.0 mg/kg/injection, schedule: Q01DX005 (ip), vehicle: saline with Tween-80
[6] = dose: 50.0 mg/kg/injection, schedule: Q01DX009 (ip), vehicle: Klucel (hydroxypropylcellulose) (HPC)
[7] = dose: 60.0 mg/kg/injection, schedule: Q01DX005 (ip), vehicle: saline with Tween-80
[8] = dose: 60.0 mg/kg/injection, schedule: Q01DX005 (ip), vehicle: Klucel (hydroxypropylcellulose) (HPC)
[9] = dose: 12.5 mg/kg/injection, schedule: Q01DX009 (ip), vehicle: saline
[10] = dose: 25.0 mg/kg/injection, schedule: Q01DX009 (ip), vehicle: saline
[11] = dose: 50.0 mg/kg/injection, schedule: Q01DX009 (ip), vehicle: saline with Tween-80
[12] = dose: 100.0 mg/kg/injection, schedule: Q01DX009 (ip), vehicle: saline with Tween-80
[13] = dose: 200.0 mg/kg/injection, schedule: Q01DX009 (ip), vehicle: saline with Tween-80

For `CCCCCCCCCCCCCCCC(=O)NC1CC(OC2CC(O)(C(C)=O)Cc3c(O)c4c(c(O)c32)C(=O)c2c(OC)cccc2C4=O)OC(C)C1O` (configuration not stated), which T/C (dose: 0.75 mg/kg/injection, schedule: Q01DX009 (ip), vehicle: other) is on record?
Its T/C is 111 % of control.

What about the T/C (dose: 1.5 mg/kg/injection, schedule: Q01DX009 (ip), vehicle: other) of the same molecule?
Its T/C is 98 % of control.

What about the T/C (dose: 3.0 mg/kg/injection, schedule: Q01DX009 (ip), vehicle: other) of the same molecule?
Its T/C is 113 % of control.

What does the source list for `Cn1c2nc(=O)[nH]c(=O)c-2cc2ccccc21`?
T/C (dose: 25.0 mg/kg/injection, schedule: Q04DX003 (ip), vehicle: saline with Tween-80): 95 % of control; T/C (dose: 50.0 mg/kg/injection, schedule: Q04DX003 (ip), vehicle: saline with Tween-80): 93 % of control; T/C (dose: 100.0 mg/kg/injection, schedule: Q04DX003 (ip), vehicle: saline with Tween-80): 90 % of control; T/C (dose: 200.0 mg/kg/injection, schedule: Q04DX003 (ip), vehicle: saline with Tween-80): 94 % of control

How did the T/C (dose: 100.0 mg/kg/injection, schedule: Q01DX009 (ip), vehicle: saline) turn out when `Cc1cc(O)ccc1O` was run?
Its T/C is 100 % of control and 116 % of control.

What about the T/C (dose: 200.0 mg/kg/injection, schedule: Q01DX009 (ip), vehicle: saline) of the same molecule?
Its T/C is 112 % of control and 117 % of control.

For `COC(=N)CCCCC(=N)OC`, which T/C [1] is on record?
The T/C was 92 % of control.

What about the T/C [2] of the same molecule?
Its T/C is 97 % of control.

What about the T/C (dose: 200.0 mg/kg/injection, schedule: Q01DX005 (ip), vehicle: saline) of the same molecule?
The T/C was 101 % of control.

How did the T/C [3] turn out when `O=C1OC(=O)c2cc([N+](=O)[O-])cc3cccc1c23` was run?
Its T/C is 108 % of control and 110 % of control (2×).

What about the T/C [4] of the same molecule?
Its T/C is 100 % of control and 103 % of control and 111 % of control.

And the T/C [5]?
The T/C was 102 % of control and 110 % of control and 123 % of control.

What about the T/C (dose: 400.0 mg/kg/injection, schedule: Q01DX005 (ip), vehicle: saline with Tween-80) of the same molecule?
Its T/C is 119 % of control.

`CC1(C)CC(=O)C(CC(=O)c2ccccc2)=C(NNc2ccncc2)C1` was tested. Which T/C [6] did it give?
Its T/C is 94 % of control.

And the T/C (dose: 100.0 mg/kg/injection, schedule: Q01DX009 (ip), vehicle: Klucel (hydroxypropylcellulose) (HPC))?
The T/C was 95 % of control.

And the T/C (dose: 200.0 mg/kg/injection, schedule: Q01DX009 (ip), vehicle: Klucel (hydroxypropylcellulose) (HPC))?
Its T/C is 91 % of control.

Which results are given for `S=S1CC2(CSSC2)C1.[Cl][Hg][Cl]`?
T/C (dose: 7.5 mg/kg/injection, schedule: Q01DX009 (ip), vehicle: saline): 111 % of control; T/C (dose: 15.0 mg/kg/injection, schedule: Q01DX009 (ip), vehicle: saline): 117 % of control

`O=[N+]([O-])c1ccccc1NC1CCN(CCCC2(c3ccc(F)cc3)OCCO2)CC1` was tested. Which T/C [7] did it give?
Its T/C is 97 % of control.

And the T/C (dose: 120.0 mg/kg/injection, schedule: Q01DX005 (ip), vehicle: saline with Tween-80)?
Its T/C is 101 % of control.

What about the T/C (dose: 240.0 mg/kg/injection, schedule: Q01DX005 (ip), vehicle: saline with Tween-80) of the same molecule?
Its T/C is 99 % of control.

Which results are given for `CN(C)C(=O)n1cc(Cl)c(=O)c2c3ncn(C)c3ccc21`?
T/C [8]: 108 % of control; T/C (dose: 100.0 mg/kg/injection, schedule: Q01DX005 (ip), vehicle: Klucel (hydroxypropylcellulose) (HPC)): 101 % of control; T/C (dose: 200.0 mg/kg/injection, schedule: Q01DX005 (ip), vehicle: Klucel (hydroxypropylcellulose) (HPC)): 100 % of control

Which T/C (dose: 100.0 mg/kg/injection, schedule: Q04DX002 (ip), vehicle: saline with Tween-80) does the source give for `CSC(=S)n1nc(-c2ccccc2)c(N=Nc2cccc(C)c2C)c1C` here?
Its T/C is 88 % of control.

And the T/C (dose: 200.0 mg/kg/injection, schedule: Q04DX002 (ip), vehicle: saline with Tween-80)?
The T/C was 90 % of control.

And the T/C (dose: 400.0 mg/kg/injection, schedule: Q04DX002 (ip), vehicle: saline with Tween-80)?
Its T/C is 112 % of control.

Which results are given for `Cc1cccc2c(SCCCCCCSc3c4ccccc4nc4c(C)cccc34)c3ccccc3nc12`?
T/C [8]: 90 % of control; T/C (dose: 120.0 mg/kg/injection, schedule: Q01DX005 (ip), vehicle: Klucel (hydroxypropylcellulose) (HPC)): 92 % of control; T/C (dose: 240.0 mg/kg/injection, schedule: Q01DX005 (ip), vehicle: Klucel (hydroxypropylcellulose) (HPC)): 91 % of control

With `C[C@]12CC[C@@H]3c4cc(N)c(O)cc4CC[C@H]3[C@@H]1CC[C@@H]2O` as the molecule, how does the T/C [3] read?
Its T/C is 100 % of control.

And the T/C [4]?
Its T/C is 103 % of control.

And the T/C [5]?
The T/C was 100 % of control.

`C/C(=N\NC(=S)N1CCN(c2ccccn2)CC1)c1cccc(C)n1` was tested. Which T/C (dose: 6.25 mg/kg/injection, schedule: Q01DX005 (ip), vehicle: saline with Tween-80) did it give?
Its T/C is 101 % of control and 107 % of control.

What about the T/C (dose: 12.5 mg/kg/injection, schedule: Q01DX005 (ip), vehicle: saline with Tween-80) of the same molecule?
Its T/C is 103 % of control and 124 % of control.

And the T/C (dose: 25.0 mg/kg/injection, schedule: Q01DX005 (ip), vehicle: saline with Tween-80)?
Its T/C is 118 % of control.

How did the T/C (dose: 12.5 mg/kg/injection, schedule: Q01DX009 (ip), vehicle: other) turn out when `O=C(NC(CCSSCCC(NC(=O)OCc1ccccc1)C(=O)O)C(=O)O)OCc1ccccc1` (configuration not stated) was run?
Its T/C is 98 % of control.

And the T/C (dose: 25.0 mg/kg/injection, schedule: Q01DX009 (ip), vehicle: other)?
Its T/C is 98 % of control.

And the T/C (dose: 50.0 mg/kg/injection, schedule: Q01DX009 (ip), vehicle: other)?
Its T/C is 101 % of control.

And the T/C (dose: 100.0 mg/kg/injection, schedule: Q01DX009 (ip), vehicle: other)?
Its T/C is 100 % of control.

And the T/C (dose: 200.0 mg/kg/injection, schedule: Q01DX009 (ip), vehicle: other)?
Its T/C is 103 % of control.

What does the source list for `O=C1C(Cl)=C(NCCCN(CCO)CCO)C(=O)c2ccccc21`?
T/C [9]: 100 % of control; T/C [10]: 107 % of control and 88 % of control; T/C (dose: 50.0 mg/kg/injection, schedule: Q01DX009 (ip), vehicle: saline): 107 % of control and 108 % of control

Which results are given for `ClC1c2ccccc2Cc2cccnc21` (configuration not stated)?
T/C [11]: 102 % of control; T/C [12]: 101 % of control; T/C [13]: 95 % of control

Which results are given for `C[CH2][Sn]([CH2]C)([O][P+](=O)C[Si](C)(C)c1ccccc1)[O][P+](=O)C[Si](C)(C)c1ccccc1` (configuration not stated)?
T/C (dose: 30.0 mg/kg/injection, schedule: Q01DX005 (ip), vehicle: saline with Tween-80): 119 % of control; T/C [7]: 153 % of control

How did the T/C [11] turn out when `CCCCN(CCCC)CCC(O)c1cc(-c2ccc(C(F)(F)F)cc2)nc(-c2ccc(C(F)(F)F)cc2)c1` (configuration not stated) was run?
Its T/C is 111 % of control.

And the T/C [12]?
The T/C was 106 % of control.

What about the T/C [13] of the same molecule?
The T/C was 101 % of control.

Which results are given for `CCN(CC)CCn1c(C)nc2c1C(=O)c1nc(C)n(CCN(CC)CC)c1C2=O`?
T/C (dose: 6.25 mg/kg/injection, schedule: Q01DX005 (ip), vehicle: saline): 100 % of control; T/C (dose: 12.5 mg/kg/injection, schedule: Q01DX005 (ip), vehicle: saline): 109 % of control

Which results are given for `CC1(Cl)CC(C)(/C=C/Cl)C(Br)CC1Cl` (configuration not stated)?
T/C (dose: 41.5 mg/kg/injection, schedule: Q01DX005 (ip), vehicle: Klucel (hydroxypropylcellulose) (HPC)): 91 % of control; T/C (dose: 83.0 mg/kg/injection, schedule: Q01DX005 (ip), vehicle: Klucel (hydroxypropylcellulose) (HPC)): 91 % of control; T/C (dose: 166.0 mg/kg/injection, schedule: Q01DX005 (ip), vehicle: Klucel (hydroxypropylcellulose) (HPC)): 100 % of control

For `NC1C(=O)Nc2ccccc21` (configuration not stated), which T/C (dose: 60.0 mg/kg/injection, schedule: Q01DX005 (ip), vehicle: saline) is on record?
The T/C was 95 % of control.

And the T/C (dose: 120.0 mg/kg/injection, schedule: Q01DX005 (ip), vehicle: saline)?
Its T/C is 103 % of control.

Which T/C (dose: 6.25 mg/kg/injection, schedule: Q01DX009 (ip), vehicle: saline) does the source give for `[Cl][Fe]([Cl])([Cl])[Cl].c1ccc(C[n+]2ccccc2)cc1` here?
Its T/C is 108 % of control.

What about the T/C [9] of the same molecule?
Its T/C is 104 % of control.

What about the T/C [10] of the same molecule?
Its T/C is 117 % of control.

`COc1cc(I)cc(OC)c1OC` was tested. Which T/C (dose: 6.25 mg/kg/injection, schedule: Q01DX009 (ip), vehicle: Klucel (hydroxypropylcellulose) (HPC)) did it give?
Its T/C is 97 % of control.

What about the T/C (dose: 12.5 mg/kg/injection, schedule: Q01DX009 (ip), vehicle: Klucel (hydroxypropylcellulose) (HPC)) of the same molecule?
Its T/C is 94 % of control.

What about the T/C (dose: 25.0 mg/kg/injection, schedule: Q01DX009 (ip), vehicle: Klucel (hydroxypropylcellulose) (HPC)) of the same molecule?
Its T/C is 96 % of control.

What about the T/C [6] of the same molecule?
The T/C was 91 % of control.

Which results are given for `CCN(CC)CCN1C(=O)c2cccc3c(N)c(OC)cc(c23)C1=O`?
T/C (dose: 25.0 mg/kg/injection, schedule: Q01DX005 (ip), vehicle: saline): 103 % of control; T/C [1]: 100 % of control and 97 % of control; T/C [2]: 100 % of control and 104 % of control

— PubChem BioAssay AID330 (DTP/NCI, 2004)
